According to ChEMBL document CHEMBL5696441 (Nat Chem Biol, 2011):

Key:
[1] = biological target: Serine/threonine-protein kinase Sgk3 (Homo sapiens) (UniProt Q96BR1); experiment: Inhibition of human SGK3 assessed as residual activity at 1 uM using RBER-GSK3(14-27) as substrate in presence of 33P-ATP by ProQinase assay relative to control
[2] = biological target: Cyclin-dependent kinase 5/CDK5 activator 1 (Homo sapiens) (UniProt Q00535+Q15078); experiment: Inhibition of human CDK5/p35NCK assessed as residual activity at 1 uM using RBER-CHKtide as substrate in presence of 33P-ATP by ProQinase assay relative to control; assay type: protein-complex assay
[3] = biological target: Tyrosine-protein kinase FRK (Homo sapiens) (UniProt P42685); experiment: Inhibition of FRK (unknown origin) assessed as remaining activity at 1 uM by Kinome scan method relative to control
[4] = system: Hepatocyte growth factor receptor (Homo sapiens), P08581 [Y1230A]; experiment: Inhibition of human MET Y1230A mutant assessed as residual activity at 1 uM using poly(Ala,Glu,Lys,Tyr)6:2:5:1 as substrate in presence of 33P-ATP by ProQinase assay relative to control
[5] = biological target: Receptor-type tyrosine-protein kinase FLT3 (Homo sapiens) (UniProt P36888); experiment: Inhibition of human FLT3 assessed as residual activity at 1 uM using Poly(Ala,Glu,Lys,Tyr)6:2:5:1 as substrate in presence of 33P-ATP by ProQinase assay relative to control
[6] = biological target: Atypical kinase COQ8B, mitochondrial (Homo sapiens) (UniProt Q96D53); experiment: Inhibition of ADCK4 (unknown origin) assessed as remaining activity at 1 uM by Kinome scan method relative to control
[7] = biological target: T1, Calcium/calmodulin-dependent protein kinase type IV (Homo sapiens) (UniProt Q16566); experiment: Inhibition of human CAMK4 assessed as residual activity at 1 uM using JUN as substrate in presence of 33P-ATP by ProQinase assay relative to control
T1 sequence (whole entry): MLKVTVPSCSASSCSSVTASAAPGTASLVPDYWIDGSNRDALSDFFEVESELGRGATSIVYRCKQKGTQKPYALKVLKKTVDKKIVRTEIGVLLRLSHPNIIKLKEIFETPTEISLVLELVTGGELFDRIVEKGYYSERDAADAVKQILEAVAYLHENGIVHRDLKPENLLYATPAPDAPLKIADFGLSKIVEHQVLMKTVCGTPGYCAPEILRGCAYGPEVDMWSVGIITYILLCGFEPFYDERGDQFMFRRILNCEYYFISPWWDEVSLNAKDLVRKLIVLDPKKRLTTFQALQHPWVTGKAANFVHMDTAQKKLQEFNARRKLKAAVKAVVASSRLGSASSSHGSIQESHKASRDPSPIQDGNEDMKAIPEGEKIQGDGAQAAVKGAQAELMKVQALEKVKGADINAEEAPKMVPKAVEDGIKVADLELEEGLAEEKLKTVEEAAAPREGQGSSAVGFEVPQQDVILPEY

[8] = biological target: Serine/threonine-protein kinase Nek7 (Homo sapiens) (UniProt Q8TDX7); experiment: Inhibition of human NEK7 assessed as residual activity at 1 uM using casein as substrate in presence of 33P-ATP by ProQinase assay relative to control
[9] = system: Epidermal growth factor receptor (Homo sapiens), P00533 [UNDEFINED MUTATION]; experiment: Inhibition of human EGFR d752-759 mutant assessed as residual activity at 1 uM using PolyEY as substrate in presence of 33P-ATP by ProQinase assay relative to control
[10] = biological target: Macrophage-stimulating protein receptor (Homo sapiens) (UniProt Q04912); experiment: Inhibition of human RON assessed as residual activity at 1 uM using polyEY as substrate in presence of 33P-ATP by ProQinase assay relative to control
[11] = biological target: Casein kinase I isoform gamma-1 (Homo sapiens) (UniProt Q9HCP0); experiment: Inhibition of human CK1gamma1 assessed as residual activity at 1 uM using casein as substrate in presence of 33P-ATP by ProQinase assay relative to control
[12] = biological target: T2, Ephrin type-B receptor 4 (Homo sapiens) (UniProt P54760); experiment: Inhibition of human EPHB4 assessed as residual activity at 1 uM using polyEY as substrate in presence of 33P-ATP by ProQinase assay relative to control
T2 sequence (whole entry): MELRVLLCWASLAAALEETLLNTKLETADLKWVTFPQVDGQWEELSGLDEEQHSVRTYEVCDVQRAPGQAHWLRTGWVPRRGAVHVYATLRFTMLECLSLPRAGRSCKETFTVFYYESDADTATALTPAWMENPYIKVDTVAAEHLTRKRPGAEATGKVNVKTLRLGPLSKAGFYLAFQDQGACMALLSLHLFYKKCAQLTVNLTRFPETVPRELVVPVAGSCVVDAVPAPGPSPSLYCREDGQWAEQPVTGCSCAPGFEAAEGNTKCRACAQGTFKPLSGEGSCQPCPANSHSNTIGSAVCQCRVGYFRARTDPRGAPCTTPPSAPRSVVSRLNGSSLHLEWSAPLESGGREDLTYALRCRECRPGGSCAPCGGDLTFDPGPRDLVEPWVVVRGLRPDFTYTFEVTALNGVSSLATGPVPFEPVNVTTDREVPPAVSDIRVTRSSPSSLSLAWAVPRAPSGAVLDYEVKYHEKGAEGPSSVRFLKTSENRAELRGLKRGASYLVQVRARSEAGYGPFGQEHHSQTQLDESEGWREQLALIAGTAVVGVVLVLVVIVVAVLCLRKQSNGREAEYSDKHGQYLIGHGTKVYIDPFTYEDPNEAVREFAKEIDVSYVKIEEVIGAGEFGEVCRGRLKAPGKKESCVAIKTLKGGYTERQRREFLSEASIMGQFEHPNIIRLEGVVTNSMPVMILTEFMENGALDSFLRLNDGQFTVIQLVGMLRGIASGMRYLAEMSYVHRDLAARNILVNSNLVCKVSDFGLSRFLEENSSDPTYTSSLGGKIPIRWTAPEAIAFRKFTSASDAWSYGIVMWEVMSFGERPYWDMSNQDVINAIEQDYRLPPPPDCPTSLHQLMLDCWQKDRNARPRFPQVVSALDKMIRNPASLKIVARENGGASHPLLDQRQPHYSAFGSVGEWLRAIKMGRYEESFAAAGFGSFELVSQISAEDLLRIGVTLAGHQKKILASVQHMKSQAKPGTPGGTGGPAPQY

Serine/threonine-protein kinase Nek7 (Homo sapiens), sequence (Q8TDX7 whole entry, looked up): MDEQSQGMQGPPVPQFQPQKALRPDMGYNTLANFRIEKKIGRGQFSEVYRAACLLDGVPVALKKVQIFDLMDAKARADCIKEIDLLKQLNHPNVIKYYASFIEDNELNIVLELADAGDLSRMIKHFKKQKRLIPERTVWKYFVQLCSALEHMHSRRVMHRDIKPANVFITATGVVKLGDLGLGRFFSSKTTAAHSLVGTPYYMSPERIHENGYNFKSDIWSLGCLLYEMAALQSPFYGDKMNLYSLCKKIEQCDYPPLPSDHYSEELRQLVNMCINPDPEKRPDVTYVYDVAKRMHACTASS
Cyclin-dependent kinase 5/CDK5 activator 1 (Homo sapiens), sequence (Q00535 whole entry): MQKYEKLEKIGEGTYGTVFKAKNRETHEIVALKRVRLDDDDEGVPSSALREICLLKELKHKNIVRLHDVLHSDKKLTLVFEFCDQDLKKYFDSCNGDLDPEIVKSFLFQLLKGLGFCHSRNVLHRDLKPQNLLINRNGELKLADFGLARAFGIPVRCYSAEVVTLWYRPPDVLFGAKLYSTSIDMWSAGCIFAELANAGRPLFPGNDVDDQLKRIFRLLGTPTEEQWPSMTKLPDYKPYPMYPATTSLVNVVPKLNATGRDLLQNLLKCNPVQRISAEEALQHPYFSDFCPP
Cyclin-dependent kinase 5/CDK5 activator 1 (Homo sapiens), sequence (Q15078 99-307 partner limits assumed): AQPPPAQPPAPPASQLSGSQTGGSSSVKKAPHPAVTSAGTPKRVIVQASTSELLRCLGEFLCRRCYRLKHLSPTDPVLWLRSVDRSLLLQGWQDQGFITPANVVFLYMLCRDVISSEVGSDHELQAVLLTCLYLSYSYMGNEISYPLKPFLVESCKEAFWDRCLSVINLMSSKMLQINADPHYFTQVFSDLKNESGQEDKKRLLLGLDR
Serine/threonine-protein kinase Sgk3 (Homo sapiens), sequence (Q96BR1 whole entry): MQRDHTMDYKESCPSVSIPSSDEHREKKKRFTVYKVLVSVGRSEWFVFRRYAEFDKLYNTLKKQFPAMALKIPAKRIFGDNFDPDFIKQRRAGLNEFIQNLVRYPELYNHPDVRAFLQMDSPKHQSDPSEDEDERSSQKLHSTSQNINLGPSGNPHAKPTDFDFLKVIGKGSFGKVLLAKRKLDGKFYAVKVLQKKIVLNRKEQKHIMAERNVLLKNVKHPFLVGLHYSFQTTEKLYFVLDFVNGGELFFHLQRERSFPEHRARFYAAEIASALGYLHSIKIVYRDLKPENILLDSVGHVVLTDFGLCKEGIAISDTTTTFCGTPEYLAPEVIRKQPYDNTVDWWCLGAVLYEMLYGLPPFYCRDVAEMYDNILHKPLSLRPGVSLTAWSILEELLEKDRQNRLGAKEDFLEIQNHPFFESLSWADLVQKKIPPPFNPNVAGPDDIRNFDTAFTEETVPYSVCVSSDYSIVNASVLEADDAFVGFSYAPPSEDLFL
Receptor-type tyrosine-protein kinase FLT3 (Homo sapiens), sequence (P36888 whole entry): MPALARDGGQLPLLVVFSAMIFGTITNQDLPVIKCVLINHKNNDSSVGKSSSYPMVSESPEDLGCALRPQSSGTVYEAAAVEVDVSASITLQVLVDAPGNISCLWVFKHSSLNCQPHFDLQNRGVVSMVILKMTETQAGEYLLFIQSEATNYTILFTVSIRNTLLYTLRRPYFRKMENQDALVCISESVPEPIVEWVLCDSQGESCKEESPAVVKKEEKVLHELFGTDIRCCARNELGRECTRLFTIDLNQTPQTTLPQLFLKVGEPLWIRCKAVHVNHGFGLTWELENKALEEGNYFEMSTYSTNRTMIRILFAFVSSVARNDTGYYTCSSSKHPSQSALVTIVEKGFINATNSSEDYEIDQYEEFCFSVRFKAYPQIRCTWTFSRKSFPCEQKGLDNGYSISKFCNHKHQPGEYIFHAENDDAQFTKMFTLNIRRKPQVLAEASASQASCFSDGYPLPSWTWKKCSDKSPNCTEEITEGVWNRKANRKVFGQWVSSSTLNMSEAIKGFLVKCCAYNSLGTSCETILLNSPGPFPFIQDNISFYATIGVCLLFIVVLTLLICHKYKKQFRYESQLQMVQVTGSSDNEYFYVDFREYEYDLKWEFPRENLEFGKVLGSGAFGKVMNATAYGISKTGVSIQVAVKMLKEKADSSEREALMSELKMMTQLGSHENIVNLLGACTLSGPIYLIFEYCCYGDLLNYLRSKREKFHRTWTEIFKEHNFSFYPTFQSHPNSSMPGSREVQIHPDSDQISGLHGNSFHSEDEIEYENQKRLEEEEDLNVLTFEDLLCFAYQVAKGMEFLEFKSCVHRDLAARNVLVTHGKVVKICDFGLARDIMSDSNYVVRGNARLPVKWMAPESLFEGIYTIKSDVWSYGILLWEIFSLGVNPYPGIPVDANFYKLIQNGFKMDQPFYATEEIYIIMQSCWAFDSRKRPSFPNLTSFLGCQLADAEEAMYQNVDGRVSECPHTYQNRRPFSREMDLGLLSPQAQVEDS
Epidermal growth factor receptor (Homo sapiens), P00533 [UNDEFINED MUTATION], sequence (P00533 whole entry, looked up, change not shown): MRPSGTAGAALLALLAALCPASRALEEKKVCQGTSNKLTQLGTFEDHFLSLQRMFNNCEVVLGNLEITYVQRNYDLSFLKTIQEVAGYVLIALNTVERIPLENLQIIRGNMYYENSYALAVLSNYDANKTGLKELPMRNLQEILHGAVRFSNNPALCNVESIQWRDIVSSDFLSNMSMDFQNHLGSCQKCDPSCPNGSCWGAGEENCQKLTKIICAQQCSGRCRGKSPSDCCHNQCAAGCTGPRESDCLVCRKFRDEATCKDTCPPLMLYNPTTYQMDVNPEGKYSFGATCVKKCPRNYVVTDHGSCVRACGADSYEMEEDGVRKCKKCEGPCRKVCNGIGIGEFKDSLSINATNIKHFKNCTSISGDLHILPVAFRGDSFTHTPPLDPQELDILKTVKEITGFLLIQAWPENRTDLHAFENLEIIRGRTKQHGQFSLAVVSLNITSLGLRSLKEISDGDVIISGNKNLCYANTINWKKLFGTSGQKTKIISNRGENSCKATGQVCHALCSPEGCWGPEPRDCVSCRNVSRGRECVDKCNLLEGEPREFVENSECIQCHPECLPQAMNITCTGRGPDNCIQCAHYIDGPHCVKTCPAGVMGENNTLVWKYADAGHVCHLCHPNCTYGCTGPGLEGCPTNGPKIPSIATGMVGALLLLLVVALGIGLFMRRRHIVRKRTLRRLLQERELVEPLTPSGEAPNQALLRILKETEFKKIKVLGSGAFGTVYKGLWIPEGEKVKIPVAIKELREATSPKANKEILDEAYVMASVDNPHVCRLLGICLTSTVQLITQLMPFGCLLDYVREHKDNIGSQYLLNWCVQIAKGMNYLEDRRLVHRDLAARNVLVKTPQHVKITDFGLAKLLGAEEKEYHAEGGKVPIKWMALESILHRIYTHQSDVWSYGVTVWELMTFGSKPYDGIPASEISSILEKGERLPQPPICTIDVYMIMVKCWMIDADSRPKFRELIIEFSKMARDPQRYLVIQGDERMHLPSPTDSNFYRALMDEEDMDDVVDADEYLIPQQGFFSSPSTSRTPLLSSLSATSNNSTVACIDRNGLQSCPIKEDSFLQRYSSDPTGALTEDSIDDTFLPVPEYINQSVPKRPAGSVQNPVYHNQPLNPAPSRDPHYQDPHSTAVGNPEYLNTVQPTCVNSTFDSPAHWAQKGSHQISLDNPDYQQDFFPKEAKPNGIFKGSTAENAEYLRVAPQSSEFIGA
Atypical kinase COQ8B, mitochondrial (Homo sapiens), sequence (Q96D53 whole entry): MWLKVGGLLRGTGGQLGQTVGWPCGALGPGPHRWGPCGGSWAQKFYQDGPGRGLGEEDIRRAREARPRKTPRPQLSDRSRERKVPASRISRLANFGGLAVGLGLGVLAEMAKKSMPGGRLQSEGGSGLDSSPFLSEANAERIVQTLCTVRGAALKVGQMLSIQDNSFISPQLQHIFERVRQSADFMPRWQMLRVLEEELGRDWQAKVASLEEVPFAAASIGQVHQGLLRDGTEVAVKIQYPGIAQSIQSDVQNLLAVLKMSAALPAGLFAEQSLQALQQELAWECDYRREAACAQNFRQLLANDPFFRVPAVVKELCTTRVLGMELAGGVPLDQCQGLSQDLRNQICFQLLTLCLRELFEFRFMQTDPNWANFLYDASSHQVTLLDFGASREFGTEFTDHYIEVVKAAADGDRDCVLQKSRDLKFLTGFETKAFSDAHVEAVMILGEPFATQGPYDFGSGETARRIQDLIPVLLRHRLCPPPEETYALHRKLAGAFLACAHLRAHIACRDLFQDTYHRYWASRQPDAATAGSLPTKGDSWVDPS
Tyrosine-protein kinase FRK (Homo sapiens), sequence (P42685 whole entry): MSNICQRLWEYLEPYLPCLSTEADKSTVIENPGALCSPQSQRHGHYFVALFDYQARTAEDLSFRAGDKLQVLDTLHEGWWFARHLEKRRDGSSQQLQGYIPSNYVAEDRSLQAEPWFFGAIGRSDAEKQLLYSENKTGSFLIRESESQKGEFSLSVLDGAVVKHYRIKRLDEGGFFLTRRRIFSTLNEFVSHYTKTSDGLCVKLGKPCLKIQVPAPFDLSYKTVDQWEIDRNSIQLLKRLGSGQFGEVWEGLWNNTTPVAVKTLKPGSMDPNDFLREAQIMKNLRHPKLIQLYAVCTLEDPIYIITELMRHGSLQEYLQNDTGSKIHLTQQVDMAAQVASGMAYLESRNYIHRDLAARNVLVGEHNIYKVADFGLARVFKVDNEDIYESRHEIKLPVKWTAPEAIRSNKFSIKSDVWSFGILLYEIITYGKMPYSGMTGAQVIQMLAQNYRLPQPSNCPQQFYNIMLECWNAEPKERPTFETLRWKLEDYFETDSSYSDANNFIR
Casein kinase I isoform gamma-1 (Homo sapiens), sequence (Q9HCP0 whole entry, looked up, canonical isoform): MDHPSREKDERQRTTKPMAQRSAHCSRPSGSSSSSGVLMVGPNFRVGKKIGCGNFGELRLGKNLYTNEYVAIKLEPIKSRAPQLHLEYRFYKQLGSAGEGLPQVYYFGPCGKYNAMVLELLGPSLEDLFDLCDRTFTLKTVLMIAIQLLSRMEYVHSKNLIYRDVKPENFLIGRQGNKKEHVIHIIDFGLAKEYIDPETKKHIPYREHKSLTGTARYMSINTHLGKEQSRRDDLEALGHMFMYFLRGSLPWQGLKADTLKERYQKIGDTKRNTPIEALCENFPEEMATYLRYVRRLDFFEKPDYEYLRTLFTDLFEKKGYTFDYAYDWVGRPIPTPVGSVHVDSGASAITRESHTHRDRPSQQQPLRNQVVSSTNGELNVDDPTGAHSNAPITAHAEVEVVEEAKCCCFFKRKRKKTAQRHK

O=C1c2ccc(Nc3ccc(F)cc3F)cc2CCc2ccc(OC[C@H](O)CO)cc21 [Skepinone-L]
Activity [1]: 102% | Activity [2]: 90% | Activity [3]: 100% | Activity [4]: 91% | Activity [5]: 106% | Activity [6]: 100% | Activity [7]: 111% | Activity [8]: 83% | Activity [9]: 83% | Activity [10]: 56% | Activity [11]: 97% | Activity [12]: 128%
